Source: ChEMBL document CHEMBL6177981, “Bardoxolone Derivatives as Novel Pseudo-Natural Necroptosis Inhibitors by Destabilizing HSP90 Client Proteins” (J Med Chem, 2025)
Activity calls are given as the source filed them. No cut-off for these calls is given here.

Key:
[1] = test system: HT-29; experiment: Anti-necroptotic activity in TSZ-induced human HT-29 cells assessed as increase in cell viability preincubated with Z-VAD-FMK and SM164 for 30 mins followed by TNFalpha stimulation for 12 hrs and measured after compound addition by CellTiter-Lumi luminescent cell viability assay; assay type: functional, cell-based
[2] = test system: L929; experiment: Anti-necroptotic activity in TZ-induced mouse L929 cells assessed as increase in cell viability preincubated with Z-VAD-FMK followed by mTNFalpha stimulation for 4 hrs and measured after compound addition by CellTiter-Lumi luminescent cell viability assay; assay type: functional, cell-based
[3] = target: Heat shock protein HSP90 (Homo sapiens) (UniProt P07900+P08238); experiment: Inhibition of HSP90 in TSZ-induced human HT-29 cells assessed as reduction in EGFR protein level at 10 uM preincubated with compound followed by Z-VAD-FMK, SM164 and TNFalpha stimulation and measured after 6 hrs by Western blot analysis; assay type: cell-based
[4] = target: T1, Mixed lineage kinase domain-like protein (Homo sapiens) (UniProt Q8NB16); experiment: Inhibition of MLKL phosphorylation at S358 residue in TSZ-induced human HT-29 cells at 10 uM preincubated with compound followed by Z-VAD-FMK, SM164 and TNFalpha stimulation and measured after 6 hrs by Western blot analysis; assay type: cell-based
T1 sequence (whole entry): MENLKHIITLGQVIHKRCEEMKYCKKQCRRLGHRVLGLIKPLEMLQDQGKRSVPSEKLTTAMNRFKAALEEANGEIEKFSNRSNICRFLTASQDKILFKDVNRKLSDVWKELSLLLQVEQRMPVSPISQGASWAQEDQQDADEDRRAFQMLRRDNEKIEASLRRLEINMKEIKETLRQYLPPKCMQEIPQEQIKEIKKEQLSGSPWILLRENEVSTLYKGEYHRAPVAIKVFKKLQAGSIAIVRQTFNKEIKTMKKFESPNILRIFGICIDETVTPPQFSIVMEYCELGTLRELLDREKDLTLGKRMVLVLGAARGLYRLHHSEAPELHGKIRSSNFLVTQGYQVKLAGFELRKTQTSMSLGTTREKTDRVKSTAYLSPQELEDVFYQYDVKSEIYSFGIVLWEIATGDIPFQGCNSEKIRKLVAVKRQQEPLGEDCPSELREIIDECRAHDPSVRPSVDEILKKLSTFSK

[5] = test system: L929; experiment: Anti-necroptotic activity in TZ-induced mouse L929 cells assessed as protection against cell death at 10 uM measured within 5 hrs by Live-cell super-resolution panoramic microscopic analysis; assay type: functional, cell-based
[6] = target: Receptor-interacting serine/threonine-protein kinase 3 (Homo sapiens) (UniProt Q9Y572); experiment: Inhibition of RIPK3 phosphorylation at S227 residue in TSZ-induced human HT-29 cells at 10 uM preincubated with compound followed by Z-VAD-FMK, SM164 and TNFalpha stimulation and measured after 6 hrs by Western blot analysis; assay type: cell-based
Sequence of Receptor-interacting serine/threonine-protein kinase 3 (Homo sapiens) (Q9Y572 whole entry, looked up): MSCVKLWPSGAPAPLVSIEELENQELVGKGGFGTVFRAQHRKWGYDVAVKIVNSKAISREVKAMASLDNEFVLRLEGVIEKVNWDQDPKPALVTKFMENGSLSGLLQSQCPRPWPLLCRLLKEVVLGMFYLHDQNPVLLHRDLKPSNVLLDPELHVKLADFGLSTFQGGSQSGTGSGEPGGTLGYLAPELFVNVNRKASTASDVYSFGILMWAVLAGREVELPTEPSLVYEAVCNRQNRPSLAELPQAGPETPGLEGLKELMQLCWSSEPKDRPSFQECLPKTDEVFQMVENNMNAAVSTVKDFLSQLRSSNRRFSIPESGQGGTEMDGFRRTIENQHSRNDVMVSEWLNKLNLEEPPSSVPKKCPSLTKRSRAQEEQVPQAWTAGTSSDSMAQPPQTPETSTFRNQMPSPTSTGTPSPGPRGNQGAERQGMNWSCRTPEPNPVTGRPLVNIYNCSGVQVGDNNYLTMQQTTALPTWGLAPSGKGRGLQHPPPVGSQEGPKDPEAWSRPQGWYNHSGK

[7] = target: T2, Receptor-interacting serine/threonine-protein kinase 1 (Homo sapiens) (UniProt Q13546); experiment: Inhibition of RIPK1 phosphorylation at S166 residue in TSZ-induced human HT-29 cells at 10 uM preincubated with compound followed by Z-VAD-FMK, SM164 and TNFalpha stimulation and measured after 6 hrs by Western blot analysis; assay type: cell-based
T2 sequence (whole entry): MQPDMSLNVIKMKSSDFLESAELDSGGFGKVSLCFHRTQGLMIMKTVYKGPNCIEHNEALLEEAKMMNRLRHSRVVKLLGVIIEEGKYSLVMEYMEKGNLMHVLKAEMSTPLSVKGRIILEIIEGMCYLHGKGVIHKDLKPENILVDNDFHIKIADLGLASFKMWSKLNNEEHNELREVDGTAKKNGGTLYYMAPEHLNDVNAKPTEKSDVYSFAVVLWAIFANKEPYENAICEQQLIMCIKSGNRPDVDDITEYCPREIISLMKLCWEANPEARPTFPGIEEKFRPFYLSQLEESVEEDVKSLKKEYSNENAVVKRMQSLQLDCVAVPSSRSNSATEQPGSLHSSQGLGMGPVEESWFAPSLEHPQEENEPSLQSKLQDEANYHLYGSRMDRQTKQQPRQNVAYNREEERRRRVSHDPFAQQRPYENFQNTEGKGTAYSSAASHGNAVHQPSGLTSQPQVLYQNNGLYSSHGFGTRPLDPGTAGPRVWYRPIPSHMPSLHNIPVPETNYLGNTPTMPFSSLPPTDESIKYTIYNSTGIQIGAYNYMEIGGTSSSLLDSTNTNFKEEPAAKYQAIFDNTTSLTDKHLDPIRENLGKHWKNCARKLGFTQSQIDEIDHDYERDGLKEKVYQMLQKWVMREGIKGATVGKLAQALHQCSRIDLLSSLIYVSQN

[8] = test system: HT-29; experiment: Effect on RIPK1 protein level in human HT-29 cells at 10 microg/ml incubated for 9 hrs by Western blot analysis; assay type: functional, cell-based; conditions: dose 10.0 µg/ml
[9] = test system: HT-29; experiment: Effect on MLKL protein level in human HT-29 cells at 10 microg/ml incubated for 9 hrs by Western blot analysis; assay type: functional, cell-based; conditions: dose 10.0 µg/ml
[10] = test system: HT-29; experiment: Effect on RIPK3 protein level in human HT-29 cells at 10 microg/ml incubated for 9 hrs by Western blot analysis; assay type: functional, cell-based; conditions: dose 10.0 µg/ml
[11] = test system: RAW264.7; experiment: Anti-necroptotic activity in LZ-induced mouse RAW264.7 cells assessed as increase in cell viability preincubated with compound followed by LPS and Z-VAD-FMK stimulation and measured after 16 hrs by CellTiter-Lumi luminescent cell viability assay; assay type: functional, cell-based

| Compound | EC50 [1] | EC50 [2] | further results |
| --- | --- | --- | --- |
| CC1(C)CC[C@]2(C(=O)N3CCC(c4ccccc4)CC3)CC[C@]3(C)[C@H](C(=O)C=C4[C@@]5(C)C=C(C#N)C(=O)C(C)(C)[C@@H]5CC[C@]43C)[C@@H]2C1 | 5.8 µM | > 10 µM | – |
| CC1(C)CC[C@]2(C(=O)Nc3ccc4[nH]ccc4c3)CC[C@]3(C)[C@H](C(=O)C=C4[C@@]5(C)C=C(C#N)C(=O)C(C)(C)[C@@H]5CC[C@]43C)[C@@H]2C1 | 4.08 µM | > 10 µM | – |
| CC1(C)CC[C@]2(C(=O)O)CC[C@]3(C)C(=CC[C@@H]4[C@@]5(C)CC[C@H](O)C(C)(C)[C@@H]5CC[C@]43C)[C@@H]2C1 [OLEANOLIC_ACID] | > 10 µM | > 10 µM | – |
| CC1(C)CC[C@]2(C(=O)Nc3ccc4ncsc4c3)CC[C@]3(C)[C@H](C(=O)C=C4[C@@]5(C)C=C(C#N)C(=O)C(C)(C)[C@@H]5CC[C@]43C)[C@@H]2C1 | 3.56 µM | > 10 µM | – |
| CC1(C)CC[C@]2(C(=O)Nc3nsc4ccccc34)CC[C@]3(C)[C@H](C(=O)C=C4[C@@]5(C)C=C(C#N)C(=O)C(C)(C)[C@@H]5CC[C@]43C)[C@@H]2C1 | 3.96 µM | > 10 µM | – |
| CC1(C)CC[C@]2(C(=O)N3CCC(c4ccccc4)C3)CC[C@]3(C)[C@H](C(=O)C=C4[C@@]5(C)C=C(C#N)C(=O)C(C)(C)[C@@H]5CC[C@]43C)[C@@H]2C1 (some centres not stated) | 3.81 µM | > 10 µM | – |
| CC1(C)CC[C@]2(C(=O)N3CCc4ccccc43)CC[C@]3(C)[C@H](C(=O)C=C4[C@@]5(C)C=C(C#N)C(=O)C(C)(C)[C@@H]5CC[C@]43C)[C@@H]2C1 | > 10 µM | > 10 µM | – |
| CC1(C)CC[C@]2(C(=O)O)CC[C@]3(C)[C@H](C(=O)C=C4[C@@]5(C)C=C(C#N)C(=O)C(C)(C)[C@@H]5CC[C@]43C)[C@@H]2C1 [BARDOXOLONE] | 2.52 µM | > 10 µM | inhibition [3]: Active; inhibition [4]: inactive; Activity [5]: inactive; inhibition [6]: inactive; inhibition [7]: inactive |
| CC1(C)CC[C@]2(C(=O)O)[C@H](O)C[C@]3(C)C(=CC[C@@H]4[C@@]5(C)CC[C@H](O)C(C)(C)[C@@H]5CC[C@]43C)[C@@H]2C1 | > 10 µM | > 10 µM | – |
| CC1(C)CC[C@]2(C(=O)Nc3ccc4c(c3)OCO4)CC[C@]3(C)[C@H](C(=O)C=C4[C@@]5(C)C=C(C#N)C(=O)C(C)(C)[C@@H]5CC[C@]43C)[C@@H]2C1 | 0.89 µM | > 10 µM | – |
| CC1(C)CC[C@]2(C(=O)O)CC[C@]3(C)[C@H](C(=O)C=C4[C@@]5(C)C=C(C(N)=O)C(=O)C(C)(C)[C@@H]5CC[C@]43C)[C@@H]2C1 | 2.2 µM | > 10 µM | – |
| C[C@@H]1C[C@@H]([C@H](O)CC2CC(=O)NC(=O)C2)C(=O)[C@@H](C)C1 | – | – | Activity [8]: inactive; Activity [9]: inactive; Activity [10]: inactive |
| COC(=O)[C@]12CCC(C)(C)C[C@H]1[C@H]1C(=O)C=C3[C@@]4(C)C5NC5C(=O)C(C)(C)[C@@H]4CC[C@@]3(C)[C@]1(C)CC2 (some centres not stated) | > 10 µM | > 10 µM | – |
| CC1(C)CC[C@]2(C(=O)Nc3ccc4ccccc4c3)CC[C@]3(C)[C@H](C(=O)C=C4[C@@]5(C)C=C(C#N)C(=O)C(C)(C)[C@@H]5CC[C@]43C)[C@@H]2C1 | 9.56 µM | > 10 µM | – |
| CC1(C)CC[C@]2(C(=O)n3cnc4ccccc43)CC[C@]3(C)[C@H](C(=O)C=C4[C@@]5(C)C=C(C#N)C(=O)C(C)(C)[C@@H]5CC[C@]43C)[C@@H]2C1 | 2.35 µM | > 10 µM | – |
| CC1(C)CC[C@]2(C(=O)Nc3ccc4occc4c3)CC[C@]3(C)[C@H](C(=O)C=C4[C@@]5(C)C=C(C#N)C(=O)C(C)(C)[C@@H]5CC[C@]43C)[C@@H]2C1 | 1.32 µM | > 10 µM | – |
| CC1(C)CC[C@]2(C(=O)Nc3nc4ccccc4s3)CC[C@]3(C)[C@H](C(=O)C=C4[C@@]5(C)C=C(C#N)C(=O)C(C)(C)[C@@H]5CC[C@]43C)[C@@H]2C1 | 3.8 µM | > 10 µM | – |
| CC1(C)CC[C@]2(C(=O)Nc3ccc4sccc4c3)CC[C@]3(C)[C@H](C(=O)C=C4[C@@]5(C)C=C(C#N)C(=O)C(C)(C)[C@@H]5CC[C@]43C)[C@@H]2C1 | 4.85 µM | > 10 µM | – |
| CC1(C)CC[C@]2(C(=O)Nc3ccc4ncoc4c3)CC[C@]3(C)[C@H](C(=O)C=C4[C@@]5(C)C=C(C#N)C(=O)C(C)(C)[C@@H]5CC[C@]43C)[C@@H]2C1 | 2 µM | 2.84 µM | Activity [11]: Dose-dependent-effect |
| CC1(C)CC[C@]2(C(=O)Nc3ccc4oncc4c3)CC[C@]3(C)[C@H](C(=O)C=C4[C@@]5(C)C=C(C#N)C(=O)C(C)(C)[C@@H]5CC[C@]43C)[C@@H]2C1 | 3.28 µM | > 10 µM | – |
| CC1(C)CC[C@]2(C(=O)Nc3ccc4sncc4c3)CC[C@]3(C)[C@H](C(=O)C=C4[C@@]5(C)C=C(C#N)C(=O)C(C)(C)[C@@H]5CC[C@]43C)[C@@H]2C1 | 2.35 µM | > 10 µM | – |
| CC1(C)CC[C@]2(C(=O)NC3(c4ccccc4)CC3)CC[C@]3(C)[C@H](C(=O)C=C4[C@@]5(C)C=C(C#N)C(=O)C(C)(C)[C@@H]5CC[C@]43C)[C@@H]2C1 | 2.09 µM | 4.8 µM | Activity [11]: Dose-dependent-effect |
| COC(=O)[C@]12CCC(C)(C)C[C@H]1[C@H]1C(=O)C=C3[C@@]4(C)C5C(C(=O)C(C)(C)[C@@H]4CC[C@@]3(C)[C@]1(C)CC2)N5CC#N (some centres not stated) | > 10 µM | > 10 µM | – |
| CC1(C)CC[C@]2(C(=O)n3nnc4ccccc43)CC[C@]3(C)[C@H](C(=O)C=C4[C@@]5(C)C=C(C#N)C(=O)C(C)(C)[C@@H]5CC[C@]43C)[C@@H]2C1 | 9.98 µM | > 10 µM | – |
| CC1(C)CC[C@]2(C(=O)n3ncc4ccccc43)CC[C@]3(C)[C@H](C(=O)C=C4[C@@]5(C)C=C(C#N)C(=O)C(C)(C)[C@@H]5CC[C@]43C)[C@@H]2C1 | > 10 µM | > 10 µM | – |
| CC1(C)CC[C@]2(C(=O)N3Cc4ccccc4C3)CC[C@]3(C)[C@H](C(=O)C=C4[C@@]5(C)C=C(C#N)C(=O)C(C)(C)[C@@H]5CC[C@]43C)[C@@H]2C1 | 1.65 µM | > 10 µM | – |
| CC1(C)CC[C@]2(C(=O)Nc3ccc4scnc4c3)CC[C@]3(C)[C@H](C(=O)C=C4[C@@]5(C)C=C(C#N)C(=O)C(C)(C)[C@@H]5CC[C@]43C)[C@@H]2C1 | 1.38 µM | 4.01 µM | Activity [11]: Dose-dependent-effect |
| Cn1c(NC(=O)[C@]23CCC(C)(C)C[C@H]2[C@H]2C(=O)C=C4[C@@]5(C)C=C(C#N)C(=O)C(C)(C)[C@@H]5CC[C@@]4(C)[C@]2(C)CC3)nc2ccccc21 | 3.97 µM | > 10 µM | – |
| CC1(C)CC[C@]2(C(=O)Nc3cnc4ccccc4n3)CC[C@]3(C)[C@H](C(=O)C=C4[C@@]5(C)C=C(C#N)C(=O)C(C)(C)[C@@H]5CC[C@]43C)[C@@H]2C1 | 2.39 µM | > 10 µM | – |
